This note sets out measurements from patent US20260070887A1 (Shenzhen Zhongge Biological Technology Co., Ltd., priority 2022, published 2026).

Read-outs that look alike come from different tables or passages of the source.

A word on the IC50: it is the midpoint of a concentration-inhibition curve.

One data set deals with hERG channel (Homo sapiens (Human), UniProt Q12809). Briefly: hERG manual patch clamp test. Type of data set: cell-based. The protocol:
The cells used in this test were the HEK293 cell line transfected with hERG cDNA and stably expressing the hERG channel (#60187, supplied by BPS, passages P3-P23 for experimental studies). The cells were cultured in a medium containing the following components: MEM medium containing 10% (v/v) inactivated fetal calf serum, 1 mM sodium pyruvate, 500 μg/ml geneticin, 0.1 mM non-essential amino acids, and 100 U/m1 penicillin/streptomycin. HEK293 hERG cells were grown in a culture dish containing the above-mentioned medium, cultured in a 37° C., 5% CO2 incubator, and passaged approximately three times per week, with the cell fusion rate between 40% and 80%. 24 to 48 hours prior to electrophysiological experiments, HEK293 hERG cells were transferred to 0.05 mg/ml PDL-pretreated slides, seeded at a density of 1×10^4 cells per well in a 48-well plate, and grown in the same medium and under the same culture conditions. The density of HEK293 hERG cells on each circular slide needs to reach the requirement that most cells are independent and individual. The extracellular fluid components used in the hERG assay were as follows (mM): 145 NaCl, 4 KCl, 2 CaCl2, 1 MgCl2, 10 glucose, and 10 HEPES (pH adjusted to 7.40 with NaOH). The intracellular fluid components were as follows (mM): 130 KCl, 2 MgCl2, 5 EGTA, 10 HEPES and 5 Na2ATP (pH adjusted to 7.25 with KOH). […] Prior to the experiment, the compound was first serially diluted with DMSO to prepare stock solutions at 10, 3, 1, 0.3, and 0.1 mM, which were then further diluted with extracellular fluid to achieve the final test concentrations (in μM). The final concentration of DMSO in compound solutions at various concentrations was between 0.1% and 0.3%. All compound solutions are routinely sonicated for 5 to 10 min and shaken sufficiently to ensure complete dissolution of the compound, and all test solutions are mixed well by rotation for at least 10 min.
Electrophysiological tests were performed using a manual patch clamp system (HEKA EPC-10 signal amplifier and digital conversion system, HEKA Electronics, Germany) for the recording of whole cell currents. The specific test method was described as follows: Circular slides with […] hERG cells growing on the surface were placed in an electrophysiological recording chamber under an inverted microscope. The recording chamber was continuously perfused with extracellular fluid (at approximately 1 mL/min). The conventional whole-cell patch-clamp technique was employed for current recordings throughout the experiment. If not specified, the experiments were carried out at normal room temperature (about 25° C.). The cells were clamped at −80 mV. The cell clamp voltage was depolarized to +30 mV to activate the hERG potassium channel, and then clamped to −50 mV after 5 seconds to eliminate inactivation and produce a tail current. The peak tail current value was used as a value for the magnitude of the hERG current. The potassium current of hERG recorded in the above steps was stabilized by continuous extracellular fluid perfusion in the recording chamber, and the drug to be tested was continuously perfused until the inhibitory effect of the drug on hERG currents had stabilized. The coincidence of the most recent three consecutive current recording traces was typically taken as the criteria for determining whether steady-state conditions were achieved.
Dose-response curves of the test compounds were plotted with % hERG inhibition rate as the y-axis and test compound concentration as the x-axis, to calculate the IC50 values.

Another data set deals with HCC1395 cells. Briefly: HCC1395 cell proliferation (Cell Titer-Glo, 6 days). Type of data set: cell-based. Conditions: KIF18A-insensitive tumor cells. The protocol:
The inhibitory effect on the KIF18A target by the compounds of the present disclosure was evaluated by testing the inhibitory effect on proliferation of HCC1954 and HCC1395 cells by the compounds of the present disclosure.
HCC1954 (ATCC, CRL-2388) and HCC1395 (ATCC, CRL-2324) cells were cultured separately in RPMI-1640 complete medium (Gibco, A1049101) containing 20% fetal bovine serum (Gibco, 10099141C), 100 U penicillin, and 100 μg/mL streptomycin (Gibco, 15140-122). The Promega kit Cell Titer-Glo (Promega: G7572) was used in this method for test. • 1. HCC1954 (KIF18A-sensitive tumor cells) and HCC1395 (KIF18A-insensitive tumor cells) were cultured separately in T75 cell culture flasks (Corning, 430641), and the medium was placed in a 37° C., 5% CO2 incubator. • 2. When the cell density reached 70% to 80% (about 2 to 3 times per week), cells are passaged with trypsin (0.25% EDTA). • 3. The cell culture flask was taken out and the cells were separated by adding 2 mL of trypsin (0.25% EDTA source) for 5 minutes. • 4. Digestion was stopped by adding 8 mL of RPM1-1640 medium and the cell suspension was transferred to a centrifuge tube and centrifuged at 1000 rpm for 5 minutes. • 5. The cells were resuspended with 5 mL of RPMI-1640 medium. Cell density was adjusted to 5×10^3/mL (HCC1954), and 2.5×10^4/mL (HCC1395), respectively. • 6. 40 μL of cell solution was added to the 384-well plate (Corning, 3765). • 7. The 384-well plate was centrifuged at 1000 rpm for 1 minute. • 8. The cells were cultured overnight in a 37° C., 5% CO2 incubator. • 9. The next day, 40 nL of compound solution was added to the 384-well plate using Echo650. The plate was then placed in a 37° C., 5% CO2 incubator for 6 days. • 10. After 6 days, 20 μL of Cell-Titer-Glo (Promega, G7572) reagent was added per well. • 11. Luminescence values were measured using the EnVision Xcite Multilabel Reader (PerkinElmer, 2105-0020).
The percentage of inhibition of cell proliferation by the test compound at each concentration was calculated by comparing with the values of the control group (0.1% DMSO). The IC50 values of the compounds were obtained by concentration-inhibition rate nonlinear regression analysis of the test compounds using GraphPad Prism 9.
(Cellular ATP, detected with luciferase, serves as a proxy for viable cell number.)

Where [1] appears, read: HEK293 cells stably expressing hERG, whole-cell patch clamp, read-out: hERG IC50.

hERG channel, sequence (Q12809 whole entry, the tested form may be a part): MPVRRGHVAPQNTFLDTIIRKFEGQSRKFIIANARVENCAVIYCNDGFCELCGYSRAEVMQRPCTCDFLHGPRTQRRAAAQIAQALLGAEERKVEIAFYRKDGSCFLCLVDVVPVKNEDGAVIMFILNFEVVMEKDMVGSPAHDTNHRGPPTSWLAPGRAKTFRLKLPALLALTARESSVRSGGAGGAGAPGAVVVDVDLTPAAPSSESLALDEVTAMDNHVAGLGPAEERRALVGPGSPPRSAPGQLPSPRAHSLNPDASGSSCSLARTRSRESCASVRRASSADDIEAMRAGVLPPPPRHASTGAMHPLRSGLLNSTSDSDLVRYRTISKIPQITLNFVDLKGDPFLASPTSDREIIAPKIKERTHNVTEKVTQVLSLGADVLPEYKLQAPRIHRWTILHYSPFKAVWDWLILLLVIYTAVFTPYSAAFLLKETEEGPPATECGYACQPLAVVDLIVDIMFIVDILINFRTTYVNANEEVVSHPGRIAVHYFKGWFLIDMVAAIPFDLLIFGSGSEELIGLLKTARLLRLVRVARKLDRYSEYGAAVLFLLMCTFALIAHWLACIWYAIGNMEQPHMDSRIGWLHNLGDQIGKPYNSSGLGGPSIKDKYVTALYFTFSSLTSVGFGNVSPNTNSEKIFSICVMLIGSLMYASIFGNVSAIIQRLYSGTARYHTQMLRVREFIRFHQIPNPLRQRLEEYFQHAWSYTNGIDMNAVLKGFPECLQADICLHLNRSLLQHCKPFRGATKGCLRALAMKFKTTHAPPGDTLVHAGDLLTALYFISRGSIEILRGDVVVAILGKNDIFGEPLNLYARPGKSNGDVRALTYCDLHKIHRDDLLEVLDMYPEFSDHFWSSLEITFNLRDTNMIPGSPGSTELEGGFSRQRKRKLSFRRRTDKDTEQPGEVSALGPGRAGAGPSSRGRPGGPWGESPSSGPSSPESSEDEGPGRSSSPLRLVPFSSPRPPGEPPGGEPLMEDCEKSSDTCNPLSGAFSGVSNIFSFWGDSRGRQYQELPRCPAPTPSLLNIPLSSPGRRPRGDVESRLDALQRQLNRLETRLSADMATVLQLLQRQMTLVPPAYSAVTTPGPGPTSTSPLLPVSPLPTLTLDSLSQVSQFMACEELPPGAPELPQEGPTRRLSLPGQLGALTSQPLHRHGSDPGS

`CC1(C)Cn2c(cc3c(NC(=O)c4ccc(NS(=O)(=O)CCO)cc4N4CCC5(CC4)CC5)cccc32)CO1` [Example 371, N-(3,3-dimethyl-3,4-dihydro-1H-[1,4]oxazino[4,3-a]indol-9-yl)-4-(2-hydroxyethylsulfonamido)-2-(6-azaspiro[2.5]octan-6-yl)benzamide]: the IC50 at hERG channel (setting [1]) is greater than 10 µM.

Consider `COc1ccc(NC(=O)c2ccc(NS(=O)(=O)CCO)cc2N2CCC3(CC2)CC3)c2cc3n(c12)CC(C)(C)OC3` [Example 455, 4-((2-hydroxyethyl)sulfonamido)-N-(6-methoxy-3,3-dimethyl-3,4-dihydro-1H-[1,4]oxazinyl[4,3-a]indol-9-yl)-2-(6-azaspiro[2.5]oct-6-yl)benzamide], for which the IC50 on hERG channel is greater than 10 µM. Take `CC1(C)Cn2c(cc3c(NC(=O)c4ccc(NS(=O)(=O)CCO)cc4N4CCC5(CC4)CC5)ccc(OC(F)F)c32)CO1` [Example 523]: at hERG channel (setting [1]), the IC50 is greater than 10 µM. As to `CNc1cc(NS(=O)(=O)CCO)cc(N2CCC3(CC2)CC3)c1C(=O)Nc1cc(C)nc(N2CCC(F)(F)CC2)n1` [Example 4, N-(2-(4,4-difluoropiperidin-1-yl)-6-methylpyrimidin-4-yl)-4-(2-hydroxyethylsulfonamide)-2-methylamino-6-(6-azaspiro[2.5]octan-6-yl)benzamide], the IC50 in the data set on HCC1395 cells was greater than 5 µM. Regarding `O=C(Nc1cccc2c1cc1n2CCOC1)c1ccc(NS(=O)(=O)CCO)cc1N1CCC(=C(F)F)CC1` [Example 319, 2-(4-difluoromethylene)piperidin-1-yl-N-(3,4-dihydro-1H-[1,4]oxazino[4,3-a]indol-9-yl)-4-((2-hydroxyethyl)sulfonamide) benzamide], the values for the half-maximal inhibitory concentration (IC50) in the data set with HCC1395 cells and at hERG channel (setting [1]) were greater than 5 µM and greater than 10 µM, respectively. Regarding `CC1(C)Cn2c(cc3c(NC(=O)c4ccc(NS(=O)(=O)CCO)cc4N4CCC(=C(F)F)CC4)cccc32)CO1` [Example 370, 2-(4-(difluoromethylene)piperidin-1-yl)-N-(3,3-dimethyl-3,4-dihydro-1H-[1,4]oxazino[4,3-a]indol-9-yl)-4-((2-hydroxyethyl)sulfonamido)benzamide], the IC50 at hERG channel (setting [1]) was greater than 10 µM. Turning to `COc1ccc(NC(=O)c2ccc(NS(=O)(=O)CCO)cc2N2CCC(=C(F)F)CC2)c2cc3n(c12)CC(C)(C)OC3` [Example 465, 2-(4-(difluoromethylene)piperidin-1-yl)-4-((2-hydroxyethyl)sulfonamido)-N-(6-methoxy-3,3-dimethyl-3,4-dihydro-1H-[1,4]oxazinyl[4,3-a]indol-9-yl)benzamide], the IC50 at hERG channel (setting [1]) is greater than 10 µM. Compound `Nc1cc(NS(=O)(=O)CCO)cc(N2CCC3(CC2)CC3)c1C(=O)Nc1cccc(N2CCC(F)(F)CC2)c1` [Example 1, 2-amino-N-(3-(4,4-difluoropiperidin-1-yl)phenyl)-4-((2-hydroxyethyl)sulfonamide)-6-(6-azaspiro[2.5]octan-6-yl)benzamide] returned an IC50 in the data set on HCC1395 cells greater than 5 µM. Turning to `O=C(Nc1cccc2c1cc1n2CCOC1)c1ccc(NS(=O)(=O)CCO)cc1N1CCC2(CC1)CC2` [Example 235, N-(3,4-dihydro-1H-[1, 4]oxazino[4,3-a]indol-9-yl)-4-(2-hydroxyethylsulfonamido)-2-(6-azaspiro[2.5]octan-6-yl)benzamide], the IC50 is greater than 5 µM in the data set on HCC1395 cells (Homo sapiens, HCC1395, 144 h) and 9.84 µM at hERG channel (setting [1]).
